Paper PMC3353862
Values after ≈ are worked out from the molar mass of the structure shown.

What was measured:
E. coli tolC mutants = assay: Broth microdilution MIC testing; assay type: cell-based, Escherichia coli; details: for MIC: Escherichia coli, read-out: MIC E. coli tolC; for MIC E. coli tolC: E. coli tolC mutants
[1] = tested on: bacterial protein synthesis (aminoacylation/translation system); assay: aminoacylation/translation (A/T) assay; assay type: biochemical; details: A/T assay, Table 1; read-out: IC50
S. aureus = assay: Broth microdilution MIC testing; assay type: cell-based, Staphylococcus aureus; details: for MIC: Staphylococcus aureus, read-out: MIC S. aureus
M. catarrhalis = assay: Broth microdilution MIC testing; assay type: cell-based, Moraxella catarrhalis; details: for MIC: Moraxella catarrhalis
S. pneumoniae = assay: Broth microdilution MIC testing; assay type: cell-based, Streptococcus pneumoniae; details: for MIC: Streptococcus pneumoniae, read-out: MIC S. pneumo; for MIC S. pneumo: S. pneumoniae
[2] = tested on: E. coli modified with PMBN; assay: Broth microdilution MIC testing; assay type: cell-based, Escherichia coli; details: for MIC: Escherichia coli, read-out: MIC E. coli +PMBP; for MIC E. coli +PMBP: E. coli modified with PMBN
E. faecalis = assay: Broth microdilution MIC testing; assay type: cell-based, Enterococcus faecalis; details: for MIC: Enterococcus faecalis, read-out: MIC E. fae; for MIC E. fae: E. faecalis
H. influenzae = assay: Broth microdilution MIC testing; assay type: cell-based, Haemophilus influenzae; details: for MIC: Haemophilus influenzae, read-out: MIC H. flu; for MIC H. flu: H. influenzae

Structure (SMILES)	MIC (E. coli tolC mutants) [µg/mL]	IC50 [1] [nM]	MIC (S. aureus) [µg/mL]	MIC (M. catarrhalis) [µg/mL]	MIC (S. pneumoniae) [µg/mL]	MIC [2] [µg/mL]	MIC (E. faecalis) [µg/mL]	MIC (H. influenzae) [µg/mL]	MIC M. cat (M. catarrhalis) [µg/mL]	MIC E. coli tolC (E. coli tolC mutants) [µg/mL]	MIC S. pneumo (S. pneumoniae) [µg/mL]	MIC E. coli +PMBP [2] [µg/mL]	MIC E. fae (E. faecalis) [µg/mL]	MIC H. flu (H. influenzae) [µg/mL]	MIC S. aureus (S. aureus) [µg/mL]
Oc1nc(-c2cccnc2)nc2c1CN(Cc1cccc(F)c1)CC2 [Compound 321376]	> 128	> 300000	> 128	–	–	–	–	–	–	–	–	–	–	–	–
Oc1nc(-c2ccncc2)nc2c1CN(Cc1cccc(F)c1)CC2 [Compound 321386]	> 128	> 300000	> 128	> 128	> 128	> 128	> 128	> 128	–	–	–	–	–	–	–
COc1cccc(CN2CCc3nc(-c4ccncc4)nc(O)c3C2)c1 [Compound 321388]	> 128	> 300000	> 128	> 128	> 128	> 128	> 128	> 128	–	–	–	–	–	–	–
Oc1nc(-c2ccccn2)nc2c1CN(Cc1ccc(F)cc1)CC2 [Compound 321521]	16 (≈ 47.6 µM)	2400	128 (≈ 381 µM)	0.5 (≈ 1.49 µM)	16 (≈ 47.6 µM)	64 (≈ 190 µM)	16 (≈ 47.6 µM)	4 (≈ 11.9 µM)	–	–	–	–	–	–	–
Oc1ccccc1CN1CCc2nc(-c3ccccn3)nc(O)c2C1 [Compound 321522]	32 (≈ 95.7 µM)	2600	128 (≈ 383 µM)	1 (≈ 2.99 µM)	16 (≈ 47.8 µM)	64 (≈ 191 µM)	16 (≈ 47.8 µM)	2 (≈ 5.98 µM)	–	–	–	–	–	–	–
Oc1nc(-c2ccccn2)nc2c1CN(Cc1ccccc1)CC2 [Compound 321524]	16 (≈ 50.3 µM)	2000	128 (≈ 402 µM)	1 (≈ 3.14 µM)	16 (≈ 50.3 µM)	64 (≈ 201 µM)	16 (≈ 50.3 µM)	4 (≈ 12.6 µM)	–	–	–	–	–	–	–
COc1ccccc1CN1CCc2nc(-c3ccccn3)nc(O)c2C1 [Compound 321527]	64 (≈ 184 µM)	1800	> 128	2 (≈ 5.74 µM)	32 (≈ 91.8 µM)	> 128	64 (≈ 184 µM)	16 (≈ 45.9 µM)	–	–	–	–	–	–	–
COc1ccc(CN2CCc3nc(-c4ccccn4)nc(O)c3C2)cc1 [Compound 321529]	32 (≈ 91.8 µM)	2600	> 128	2 (≈ 5.74 µM)	32 (≈ 91.8 µM)	128 (≈ 367 µM)	128 (≈ 367 µM)	8 (≈ 23 µM)	–	–	–	–	–	–	–
COc1ccc(OC)c(CN2CCc3nc(-c4ccccn4)[nH]c(=O)c3C2)c1 [Compound 323191]	–	> 300000	–	–	–	–	–	–	4 (≈ 10.6 µM)	128 (≈ 338 µM)	32 (≈ 84.6 µM)	64 (≈ 169 µM)	128 (≈ 338 µM)	32 (≈ 84.6 µM)	> 128
O=c1[nH]c(-c2ccccn2)nc2c1CN(Cc1ccccc1OCc1ccccn1)CC2 [Compound 323192]	–	> 300000	–	–	–	–	–	–	4 (≈ 9.4 µM)	128 (≈ 301 µM)	32 (≈ 75.2 µM)	64 (≈ 150 µM)	128 (≈ 301 µM)	64 (≈ 150 µM)	> 128
C=CCOc1ccccc1CN1CCc2nc(-c3ccccn3)[nH]c(=O)c2C1 [Compound 323194]	–	3400	–	–	–	–	–	–	1 (≈ 2.67 µM)	16 (≈ 42.7 µM)	8 (≈ 21.4 µM)	16 (≈ 42.7 µM)	64 (≈ 171 µM)	8 (≈ 21.4 µM)	64 (≈ 171 µM)
O=c1[nH]c(-c2ccccn2)nc2c1CN(Cc1ccccc1N1CCCC1)CC2 [Compound 323195]	–	1500	–	–	–	–	–	–	2 (≈ 5.16 µM)	32 (≈ 82.6 µM)	32 (≈ 82.6 µM)	16 (≈ 41.3 µM)	64 (≈ 165 µM)	16 (≈ 41.3 µM)	64 (≈ 165 µM)
O=c1[nH]c(-c2ccccn2)nc2c1CN(Cc1cccc(O)c1O)CC2 [Compound 323196]	–	1600	–	–	–	–	–	–	128 (≈ 365 µM)	> 128	> 128	> 128	32 (≈ 91.3 µM)	> 128	> 128
COc1cccc(CN2CCc3nc(-c4ccccn4)[nH]c(=O)c3C2)c1O [Compound 323197]	–	4400	–	–	–	–	–	–	16 (≈ 43.9 µM)	> 128	128 (≈ 351 µM)	> 128	> 128	32 (≈ 87.8 µM)	> 128
O=c1[nH]c(-c2ccccn2)nc2c1CN(Cc1c(F)cccc1F)CC2 [Compound 323198]	–	2700	–	–	–	–	–	–	1 (≈ 2.82 µM)	32 (≈ 90.3 µM)	16 (≈ 45.2 µM)	64 (≈ 181 µM)	> 128	8 (≈ 22.6 µM)	> 128
CCOc1cc2c(cc1CN1CCc3nc(-c4ccccn4)[nH]c(=O)c3C1)OCO2 [Compound 323199]	–	1100	–	–	–	–	–	–	1 (≈ 2.46 µM)	32 (≈ 78.7 µM)	16 (≈ 39.4 µM)	32 (≈ 78.7 µM)	128 (≈ 315 µM)	16 (≈ 39.4 µM)	128 (≈ 315 µM)
COc1ccc(CN2CCc3nc(-c4ccccn4)[nH]c(=O)c3C2)c(C)c1C [Compound 323202]	–	4300	–	–	–	–	–	–	0.25 (≈ 0.664 µM)	8 (≈ 21.3 µM)	4 (≈ 10.6 µM)	32 (≈ 85 µM)	32 (≈ 85 µM)	4 (≈ 10.6 µM)	16 (≈ 42.5 µM)
COc1cc(Cl)cc(CN2CCc3nc(-c4ccccn4)[nH]c(=O)c3C2)c1OC [Compound 323203]	–	2000	–	–	–	–	–	–	1 (≈ 2.42 µM)	8 (≈ 19.4 µM)	4 (≈ 9.69 µM)	16 (≈ 38.8 µM)	64 (≈ 155 µM)	8 (≈ 19.4 µM)	16 (≈ 38.8 µM)
Cc1cc(CN2CCc3nc(-c4ccccn4)[nH]c(=O)c3C2)cc(C)c1O [Compound 323204]	–	2100	–	–	–	–	–	–	64 (≈ 177 µM)	> 128	128 (≈ 353 µM)	> 128	> 128	32 (≈ 88.3 µM)	> 128
COc1cc(CN2CCc3nc(-c4ccccn4)[nH]c(=O)c3C2)cc2c1OCO2 [Compound 323205]	–	> 300000	–	–	–	–	–	–	4 (≈ 10.2 µM)	64 (≈ 163 µM)	32 (≈ 81.5 µM)	64 (≈ 163 µM)	128 (≈ 326 µM)	16 (≈ 40.8 µM)	> 128
CN(C)Cc1cc(CN2CCc3nc(-c4ccccn4)[nH]c(=O)c3C2)ccc1O [Compound 323206]	–	> 300000	–	–	–	–	–	–	> 128	> 128	> 128	> 128	> 128	> 128	> 128
